Experimental data reported in patent US20250367171A1, “THERAPEUTIC OR PROPHYLACTIC AGENT FOR PERIPHERAL NEUROPATHIES” (Toray Industries, Inc., priority 2017, published 2025).

What was measured:
Assay type in all cases: in vivo
[1] = test system: rat streptozotocin-induced diabetes model; experiment: Nerve conduction velocity in rat streptozotocin-induced diabetes model; conditions: 10 mg/kg oral twice a day, days 14 to 28 after induction, vs vehicle group
Method: Streptozotocin (50 mg/kg, Sigma-Aldrich) was administered intravenously to SD rats (6 weeks old, male; CHARLES RIVER LABORATORIES JAPAN, INC.) via the tail vein, thereby preparing the streptozotocin-induced diabetes model. Streptozotocin was dissolved in a citrate buffer to prepare a 25 mg/mL solution, and then administered. A no pathological condition-induced animal was prepared by administering no streptozotocin solution. The day of initial administration was designated as day 1 after induction of pathological conditions.
On days 14 to 28 after induction of pathological conditions, a solution containing compound 1 (3 or 10 mg/kg) or a solvent thereof (water for injection) was orally administered to rats twice a day. […]
Nerve conduction velocity was measured within 3 days from the next day of the final administration. […] A-B stimulation and B-C stimulation were designated as distal stimulation and proximal stimulation, respectively, and then the transmission time of stimulation was analyzed on the basis of each lead-out waveform obtained from the electrode at the footpad. Nerve conduction velocity was calculated on the basis of a difference in transmission time between the distal stimulation and the proximal stimulation and the distance between the electrodes.

[2] = test system: rat experimental autoimmune neuritis (EAN) model; experiment: Rat experimental autoimmune neuritis (EAN) model: clinical scores, body weight, histopathology
Method: A method of preparing EAN model rats is as described below. Peripheral myelin protein P2 peptide 57-81 (synthesized at Toray Research Center, Inc.) was dissolved in physiological saline (Otsuka Pharmaceutical Factory, Inc.) to prepare a 2 mg/mL solution. The solution and 2 mg/mL complete Freund's adjuvant (Difco Laboratories) containing killed Mycobacterium tuberculosis H37Ra were mixed in equal amounts, thereby preparing an emulsion which was a peptide solution for administration. The peptide solution for administration (200 μL) was administered subcutaneously to the base of the tail of each Lewis rat (6 to 7 weeks old, male; CHARLES RIVER LABORATORIES JAPAN, INC.) under anesthesia, thereby preparing the EAN model. The day of administration of the peptide was designated as day 0 after induction of pathological conditions.
Clinical scores were evaluated as follows: 0=no symptom, 1=limp tail or hind limb weakness, 2=limp tail and hind limb weakness, 3=partial hind limb paralysis, 4=complete hind limb paralysis, 5=moribund state or death. Weighing was also performed.
Compound 1 (20 mg/kg) was dissolved in distilled water (Otsuka Pharmaceutical Factory, Inc.) and then the solution was orally administered to the EAN model twice a day (administration was started on day 10 after induction of pathological conditions). As a control, distilled water was orally administered to the EAN model. Groups were composed of 2 groups: a solvent administration group (vehicle group); and a compound 1 administration group.
For histopathological evaluation, on day 17 after induction of pathological conditions, the sciatic nerve and the tibial nerve were isolated, and then immersed in a 10% formalin neutral buffer solution. Specimens were sliced and then subjected to hematoxylin-eogin staining, Kliiver-Barrera staining (double staining of Luxol Fast Blue staining and Nissl staining) and immunostaining (IbaI, CD3, NFP and MBP). Specimens were observed under an optical microscope, and then the presence or the absence of T cell and macrophage infiltration, and degeneration of myelin sheaths and axons were evaluated.

[3] = test system: rat oxaliplatin-induced peripheral neuropathy model; experiment: Mechanical allodynia (von Frey test) in rat oxaliplatin-induced peripheral neuropathy model; conditions: day 18 after induction, vs vehicle group
Method: Oxaliplatin (4 mg/kg, Elplat I.V. infusion solution […]; Yakult) was administered to SD rats (7 weeks old, male; CHARLES RIVER LABORATORIES JAPAN, INC.) in a cycle of 1 week (intraperitoneally administered twice, two consecutive days per week) for 2 or 3 weeks, thereby preparing an oxaliplatin-induced peripheral neuropathy model. As a control (pseudo-induction), a 5% glucose solution (Otsuka Pharmaceutical Factory, Inc.) was administered. The initial day of administration was designated as day 0 after induction of pathological conditions. […]
Beneficial effects on mechanical allodynia were evaluated before induction of pathological conditions and on day 18 after induction of pathological conditions (before the 1st administration of compound 1). Beneficial effects on mechanical allodynia were evaluated by von Frey test. The test method was performed according to the method described in the known literature (Chaplan et al. Journal of Neuroscience Methods, 1994, Vol. 53, p. 55-63) using von Frey filaments (North Coast Medical) so that 50% response threshold was calculated.

[4] = 20 mg/kg oral twice a day, day 17, n = 3

CN(C)C1CCN(C(=O)C[C@H](O)c2nccn2C)CC1 [Compound 1, (S)-1-(4-(dimethylamino)piperidin-1-yl)-3-hydroxy-3-(1-methyl-1H-imidazol-2-yl)propan-1-one]
nerve conduction velocity [1]: Significant increases in nerve conduction velocity | body weight loss ([2]; 20 mg/kg oral twice a day from day 10 after induction): no body weight loss was induced | clinical scores ([2]; 20 mg/kg oral twice a day from day 10 after induction, vs vehicle group): Increases in clinical scores were suppressed | number of animals with T cell infiltration, sciatic nerve [2, 4]: 1/3 | number of animals with T cell infiltration, tibial nerve [2, 4]: 0/3 | number of animals with axonal degeneration, sciatic nerve [2, 4]: 0/3 | number of animals with axonal degeneration, tibial nerve [2, 4]: 0/3 | number of animals with macrophage infiltration, sciatic nerve [2, 4]: 1/3 | number of animals with macrophage infiltration, tibial nerve [2, 4]: 0/3 | number of animals with myelin sheath degeneration, sciatic nerve [2, 4]: 0/3 | number of animals with myelin sheath degeneration, tibial nerve [2, 4]: 0/3 | 50% response threshold in von Frey test (mechanical allodynia) ([3]; 3 mg/kg oral twice a day): significant increase in 50% response threshold | 50% response threshold in von Frey test (mechanical allodynia) ([3]; 10 mg/kg oral twice a day): significant increase in 50% response threshold
